# Tested on: Pseudomonas aeruginosa
# Assay: Antibacterial activity against Pseudomonas aeruginosa ATCC 27853 assessed as growth inhibition
# Type: functional
row,MIC [µg/mL],Compound
1,0.01,CC(C)C[C@@H]1NC(=O)[C@H](Cc2c[nH]c3ccccc23)NC(=O)[C@H](C)NC(=O)[C@@H]2CCCN2C(=O)[C@H]2CCCN2C(=O)[C@H](CCCCN)NC(=O)[C@H](C)NC(=O)[C@H](CCCCN)NC(=O)[C@H](CCCCN)NC(=O)[C@H](Cc2c[nH]c3ccccc23)NC(=O)[C@H](CCCNC(=N)N)NC(=O)[C@H](CCCNC(=N)N)NC(=O)[C@H](CCCCN)NC(=O)[C@H](CCCCN)NC1=O
2,0.1,C[C@@H]1NC(=O)[C@H](CCCCN)NC(=O)[C@H](CCCCN)NC(=O)[C@H](Cc2c[nH]c3ccccc23)NC(=O)[C@H](CCCNC(=N)N)NC(=O)[C@H](CCCNC(=N)N)NC(=O)[C@H](CCCCN)NC(=O)[C@H](CCCCN)NC(=O)[C@H](C)NC(=O)[C@H](Cc2c[nH]c3ccccc23)NC(=O)[C@H]([C@@H](C)O)NC(=O)[C@@H]2CCCN2C(=O)[C@H]2CCCN2C(=O)[C@H](CCCCN)NC1=O
3,0.06,CC(C)C[C@@H]1NC(=O)[C@H](Cc2ccc(O)cc2)NC(=O)[C@H]([C@@H](C)O)NC(=O)[C@@H]2CCCN2C(=O)[C@H]2CCCN2C(=O)[C@H](CCCCN)NC(=O)[C@H](C)NC(=O)[C@H](CCCCN)NC(=O)[C@H](CCCCN)NC(=O)[C@H](Cc2c[nH]c3ccccc23)NC(=O)[C@H](CCCNC(=N)N)NC(=O)[C@H](CCCNC(=N)N)NC(=O)[C@H](CCCCN)NC(=O)[C@H](CCCCN)NC1=O
4,0.06,CC(C)C[C@@H]1NC(=O)[C@H](Cc2c[nH]c3ccccc23)NC(=O)[C@H]([C@@H](C)O)NC(=O)[C@@H]2CCCN2C(=O)[C@H]2CCCN2C(=O)[C@H](CCCCN)NC(=O)[C@H](C)NC(=O)[C@H](CCCCN)NC(=O)[C@H](CCCCN)NC(=O)[C@H](Cc2c[nH]c3ccccc23)NC(=O)[C@H](C)NC(=O)[C@H](CCCNC(=N)N)NC(=O)[C@H](CCCCN)NC(=O)[C@H](CCCCN)NC1=O
5,0.1,CC(C)C[C@@H]1NC(=O)[C@H](CCCNC(=N)N)NC(=O)[C@H](CCCNC(=N)N)NC(=O)[C@H](CCCCN)NC(=O)[C@H](CCCCN)NC(=O)[C@H](CC(C)C)NC(=O)[C@H](Cc2c[nH]c3ccccc23)NC(=O)[C@H]([C@@H](C)O)NC(=O)[C@@H]2CCCN2C(=O)[C@H]2CCCN2C(=O)[C@H](CCCCN)NC(=O)[C@H](C)NC(=O)[C@H](CCCCN)NC(=O)[C@H](CCCCN)NC1=O
6,> 16,CC(C)C[C@@H]1NC(=O)[C@H](C)NC(=O)[C@H]([C@@H](C)O)NC(=O)[C@@H]2CCCN2C(=O)[C@H]2CCCN2C(=O)[C@H](CCCCN)NC(=O)[C@H](C)NC(=O)[C@H](CCCCN)NC(=O)[C@H](CCCCN)NC(=O)[C@H](Cc2c[nH]c3ccccc23)NC(=O)[C@H](CCCNC(=N)N)NC(=O)[C@H](CCCNC(=N)N)NC(=O)[C@H](CCCCN)NC(=O)[C@H](CCCCN)NC1=O
7,0.06,CC(C)C[C@@H]1NC(=O)[C@H](Cc2ccccc2)NC(=O)[C@H]([C@@H](C)O)NC(=O)[C@@H]2CCCN2C(=O)[C@H]2CCCN2C(=O)[C@H](CCCCN)NC(=O)[C@H](C)NC(=O)[C@H](CCCCN)NC(=O)[C@H](CCCCN)NC(=O)[C@H](Cc2c[nH]c3ccccc23)NC(=O)[C@H](CCCNC(=N)N)NC(=O)[C@H](CCCNC(=N)N)NC(=O)[C@H](CCCCN)NC(=O)[C@H](CCCCN)NC1=O
8,≥ 32,CC(C)C[C@@H]1NC(=O)[C@H](Cc2c[nH]c3ccccc23)NC(=O)[C@H]([C@@H](C)O)NC(=O)[C@H]2CCCN2C(=O)[C@@H]2CCCN2C(=O)[C@H](CCCCN)NC(=O)[C@H](C)NC(=O)[C@H](CCN)NC(=O)[C@H](CCCN)NC(=O)[C@H](Cc2c[nH]c3ccccc23)NC(=O)[C@H](CCCNC(=N)N)NC(=O)[C@@H](CCCCN)NC(=O)[C@H](CCCN)NC(=O)[C@H](CCN)NC1=O
9,0.03,CC(C)C[C@@H]1NC(=O)[C@H](Cc2c[nH]c3ccccc23)NC(=O)[C@H]([C@@H](C)O)NC(=O)[C@@H]2CCCN2C(=O)[C@H]2CCCN2C(=O)[C@H](CCCCN)NC(=O)[C@H](C)NC(=O)[C@H](CCCCN)NC(=O)[C@H](CCCCN)NC(=O)[C@H](Cc2c[nH]c3ccccc23)NC(=O)[C@H](CCCNC(=N)N)NC(=O)[C@H](C)NC(=O)[C@H](CCCCN)NC(=O)[C@H](CCCCN)NC1=O
10,0.3,CC(C)C[C@@H]1NC(=O)[C@H](Cc2c[nH]c3ccccc23)NC(=O)[C@H]([C@@H](C)O)NC(=O)[C@@H]2CCCN2C(=O)[C@H]2CCCN2C(=O)[C@H](CCCCN)NC(=O)[C@H](C)NC(=O)[C@H](CCCCN)NC(=O)[C@H](CCCCN)NC(=O)[C@H](Cc2ccc(O)cc2)NC(=O)[C@H](CCCNC(=N)N)NC(=O)[C@H](CCCNC(=N)N)NC(=O)[C@H](CCCCN)NC(=O)[C@H](CCCCN)NC1=O
11,0.1,CC(C)C[C@@H]1NC(=O)[C@H](Cc2c[nH]c3ccccc23)NC(=O)[C@H]([C@@H](C)O)NC(=O)[C@@H]2CCCN2C(=O)[C@H]2CCCN2C(=O)[C@H](CCCCN)NC(=O)[C@H](C)NC(=O)[C@H](CCCCN)NC(=O)[C@H](CCCCN)NC(=O)[C@H](Cc2c[nH]c3ccccc23)NC(=O)[C@H](CCCNC(=N)N)NC(=O)[C@H](CCCNC(=N)N)NC(=O)[C@H](C)NC(=O)[C@H](CCCCN)NC1=O
12,0.1,CC(C)C[C@@H]1NC(=O)[C@H](Cc2c[nH]c3ccccc23)NC(=O)[C@H]([C@@H](C)O)NC(=O)[C@@H]2CCCN2C(=O)[C@H]2CCCN2C(=O)[C@H](CCCCN)NC(=O)[C@H](C)NC(=O)[C@H](CCCCN)NC(=O)[C@H](CCCCN)NC(=O)[C@H](Cc2ccccc2)NC(=O)[C@H](CCCNC(=N)N)NC(=O)[C@H](CCCNC(=N)N)NC(=O)[C@H](CCCCN)NC(=O)[C@H](CCCCN)NC1=O
13,0.01,CC(C)C[C@@H]1NC(=O)[C@H](Cc2c[nH]c3ccccc23)NC(=O)[C@H]([C@@H](C)O)NC(=O)[C@@H]2CCCN2C(=O)[C@H]2CCCN2C(=O)[C@H](CCCCN)NC(=O)[C@H](C)NC(=O)[C@H](CCN)NC(=O)[C@H](CCCN)NC(=O)[C@H](Cc2c[nH]c3ccccc23)NC(=O)[C@H](CCCNC(=N)N)NC(=O)[C@@H](CCCCN)NC(=O)[C@H](CCCN)NC(=O)[C@H](CCN)NC1=O
14,0.05,CC(C)C[C@@H]1NC(=O)[C@H](Cc2c[nH]c3ccccc23)NC(=O)[C@H]([C@@H](C)O)NC(=O)[C@@H]2CCCN2C(=O)[C@H]2CCCN2C(=O)[C@H](CCCCN)NC(=O)[C@H](C)NC(=O)[C@H](CCCCN)NC(=O)[C@H](CCCCN)NC(=O)[C@H](Cc2c[nH]c3ccccc23)NC(=O)[C@H](CCCNC(=N)N)NC(=O)[C@H](CCCNC(=N)N)NC(=O)[C@H](CCCCN)NC(=O)[C@H](C)NC1=O
15,0.06,CC(C)C[C@@H]1NC(=O)[C@H](Cc2c[nH]c3ccccc23)NC(=O)[C@H]([C@@H](C)O)NC(=O)[C@@H]2CCCN2C(=O)[C@H]2CCCN2C(=O)[C@H](CCCCN)NC(=O)[C@H](C)NC(=O)[C@H](C)NC(=O)[C@H](CCCCN)NC(=O)[C@H](Cc2c[nH]c3ccccc23)NC(=O)[C@H](CCCNC(=N)N)NC(=O)[C@H](CCCNC(=N)N)NC(=O)[C@H](CCCCN)NC(=O)[C@H](CCCCN)NC1=O
16,> 16,CC(C)C[C@@H]1NC(=O)[C@H](Cc2c[nH]c3ccccc23)NC(=O)[C@H]([C@@H](C)O)NC(=O)[C@@H]2CCCN2C(=O)[C@H]2CCCN2C(=O)[C@H](CCCCN)NC(=O)[C@H](C)NC(=O)[C@H](CCCCN)NC(=O)[C@H](CCCCN)NC(=O)[C@H](C)NC(=O)[C@H](CCCNC(=N)N)NC(=O)[C@H](CCCNC(=N)N)NC(=O)[C@H](CCCCN)NC(=O)[C@H](CCCCN)NC1=O
17,0.01,CC(C)C[C@@H]1NC(=O)[C@H](Cc2c[nH]c3ccccc23)NC(=O)[C@H]([C@@H](C)O)NC(=O)[C@@H]2CCCN2C(=O)[C@H]2CCCN2C(=O)[C@H](CCCCN)NC(=O)[C@H](C)NC(=O)[C@H](CCCCN)NC(=O)[C@H](CCCCN)NC(=O)[C@H](Cc2c[nH]c3ccccc23)NC(=O)[C@H](CCCNC(=N)N)NC(=O)[C@H](CCCNC(=N)N)NC(=O)[C@H](CCCCN)NC(=O)[C@H](CCCCN)NC1=O
18,0.06,CC(C)C[C@@H]1NC(=O)[C@H](Cc2c[nH]c3ccccc23)NC(=O)[C@H]([C@@H](C)O)NC(=O)[C@@H]2CCCN2C(=O)[C@H]2CCCN2C(=O)[C@H](CCCCN)NC(=O)[C@H](C)NC(=O)[C@H](CCCCN)NC(=O)[C@H](C)NC(=O)[C@H](Cc2c[nH]c3ccccc23)NC(=O)[C@H](CCCNC(=N)N)NC(=O)[C@H](CCCNC(=N)N)NC(=O)[C@H](CCCCN)NC(=O)[C@H](CCCCN)NC1=O
19,1,CC(C)C[C@@H]1NC(=O)[C@H](CC(C)C)NC(=O)[C@H]([C@@H](C)O)NC(=O)[C@@H]2CCCN2C(=O)[C@H]2CCCN2C(=O)[C@H](CCCCN)NC(=O)[C@H](C)NC(=O)[C@H](CCCCN)NC(=O)[C@H](CCCCN)NC(=O)[C@H](Cc2c[nH]c3ccccc23)NC(=O)[C@H](CCCNC(=N)N)NC(=O)[C@H](CCCNC(=N)N)NC(=O)[C@H](CCCCN)NC(=O)[C@H](CCCCN)NC1=O
20,0.03,CC(C)C[C@@H]1NC(=O)[C@H](Cc2c[nH]c3ccccc23)NC(=O)[C@H]([C@@H](C)O)NC(=O)[C@@H]2CCCN2C(=O)[C@H]2CCCN2C(=O)[C@H](C)NC(=O)[C@H](C)NC(=O)[C@H](CCCCN)NC(=O)[C@H](CCCCN)NC(=O)[C@H](Cc2c[nH]c3ccccc23)NC(=O)[C@H](CCCNC(=N)N)NC(=O)[C@H](CCCNC(=N)N)NC(=O)[C@H](CCCCN)NC(=O)[C@H](CCCCN)NC1=O
